Measured values taken from the NIST ThermoML archive (doi:10.1021/acs.jced.5b00627).
Numbers after ± are expanded uncertainties.

Assays:
[1] = mn = molality of the nth substance listed, in mol/kg; details: 100 kPa, Liquid; for viscosity: Capillary tube (Ostwald / Ubbelohde) method; for speed of sound: Frequency=3 MHz, Sing-around technique in a fixed-path interferometer; for mass density: Vibrating tube method
[2] = for viscosity: 100 kPa, Capillary tube (Ostwald / Ubbelohde) method; for viscosity / speed of sound / mass density: Liquid; for speed of sound / mass density: 101.33 kPa; for speed of sound: Sing-around technique in a fixed-path interferometer; for mass density: Vibrating tube method; for Normal melting temperature: Crystal, DTA

COc1cc(-c2cc(-c3ccc(O)cc3)[nH]c(=O)c2C#N)ccc1O + C[S+](C)[O-]
[1]
Details | mass density, 298.15 K [kg/m3] | mass density, 308.15 K [kg/m3] | mass density, 318.15 K [kg/m3] | speed of sound, 298.15 K [m/s] | speed of sound, 308.15 K [m/s] | speed of sound, 318.15 K [m/s] | viscosity, 298.15 K [mPa·s] | viscosity, 308.15 K [mPa·s] | viscosity, 318.15 K [mPa·s]
m1 = 0.01 | 1096.12 ± 1 | 1086.44 ± 1 | 1076.45 ± 1 | 1486.3 ± 1.3 | 1452.4 ± 1.3 | 1419 ± 1.3 | 1.885 ± 0.34 | 1.544 ± 0.28 | 1.265 ± 0.23
m1 = 0.02 | 1097.17 ± 1 | 1087.19 ± 1 | 1077.22 ± 1 | 1487.3 ± 1.3 | 1453.2 ± 1.3 | 1420.1 ± 1.3 | 1.963 ± 0.35 | 1.576 ± 0.29 | 1.312 ± 0.24
m1 = 0.04 | 1098.34 ± 1 | 1088.48 ± 1 | 1078.49 ± 1 | 1488.9 ± 1.3 | 1454.5 ± 1.3 | 1421.5 ± 1.3 | 2.06 ± 0.37 | 1.623 ± 0.29 | 1.364 ± 0.25
m1 = 0.06 | 1099.52 ± 1 | 1089.69 ± 1 | 1079.59 ± 1 | 1490.6 ± 1.3 | 1455.6 ± 1.3 | 1422.7 ± 1.3 | 2.144 ± 0.39 | 1.663 ± 0.3 | 1.392 ± 0.25
m1 = 0.08 | 1100.69 ± 1 | 1090.67 ± 1 | 1080.74 ± 1 | 1492 ± 1.3 | 1456.5 ± 1.3 | 1424 ± 1.3 | 2.243 ± 0.41 | 1.704 ± 0.31 | 1.421 ± 0.26
m1 = 0.1 | 1101.86 ± 1 | 1091.98 ± 1 | 1081.94 ± 1 | 1493.7 ± 1.3 | 1457.4 ± 1.3 | 1425.1 ± 1.3 | 2.323 ± 0.42 | 1.729 ± 0.31 | 1.462 ± 0.27

C[S+](C)[O-] [dimethyl sulfoxide] + COc1cc(-c2cc(-c3ccc(Cl)cc3)[nH]c(=O)c2C#N)ccc1O
[1], m2 = 0
Details | mass density [kg/m3] | speed of sound [m/s] | viscosity [mPa·s]
298.15 K | 1095.28 ± 1 | 1484.8 ± 1.3 | 1.814 ± 0.33
308.15 K | 1085.23 ± 1 | 1450.9 ± 1.3 | 1.472 ± 0.27
318.15 K | 1075.19 ± 1 | 1417.4 ± 1.3 | 1.176 ± 0.21

C[S+](C)[O-] [dimethyl sulfoxide] + COc1cc(-c2cc(-c3ccccc3)[nH]c(=O)c2C#N)ccc1O
[1], m2 = 0
Details | mass density [kg/m3] | speed of sound [m/s] | viscosity [mPa·s]
298.15 K | 1095.28 ± 1 | 1484.8 ± 1.3 | 1.814 ± 0.33
308.15 K | 1085.23 ± 1 | 1450.9 ± 1.3 | 1.472 ± 0.27
318.15 K | 1075.19 ± 1 | 1417.4 ± 1.3 | 1.176 ± 0.21

C[S+](C)[O-] [dimethyl sulfoxide] + COc1cc(-c2cc(-c3ccc(O)cc3)[nH]c(=O)c2C#N)ccc1O
[1], m2 = 0
Details | mass density [kg/m3] | speed of sound [m/s] | viscosity [mPa·s]
298.15 K | 1095.28 ± 1 | 1484.8 ± 1.3 | 1.814 ± 0.33
308.15 K | 1085.23 ± 1 | 1450.9 ± 1.3 | 1.472 ± 0.27
318.15 K | 1075.19 ± 1 | 1417.4 ± 1.3 | 1.176 ± 0.21

C[S+](C)[O-] [dimethyl sulfoxide]
[2]
Details | mass density [kg/m3] | speed of sound [m/s] | viscosity [mPa·s]
298.15 K | 1095.28 ± 1 | 1484.8 ± 1.3 | 1.814 ± 0.33
308.15 K | 1085.23 ± 1 | 1450.9 ± 1.3 | 1.472 ± 0.27
318.15 K | 1075.19 ± 1 | 1417.4 ± 1.3 | 1.176 ± 0.21

COc1cc(-c2cc(-c3ccc(Cl)cc3)[nH]c(=O)c2C#N)ccc1O
Details | Normal melting temperature [°C]
[2] | 328.34 ± 1.8

COc1cc(-c2cc(-c3ccc(O)cc3)[nH]c(=O)c2C#N)ccc1O
Details | Normal melting temperature [°C]
[2] | 326.33 ± 1.8

COc1cc(-c2cc(-c3ccccc3O)[nH]c(=O)c2C#N)ccc1O + C[S+](C)[O-]
[1]
Details | mass density, 298.15 K [kg/m3] | mass density, 308.15 K [kg/m3] | mass density, 318.15 K [kg/m3] | speed of sound, 298.15 K [m/s] | speed of sound, 308.15 K [m/s] | speed of sound, 318.15 K [m/s] | viscosity, 298.15 K [mPa·s] | viscosity, 308.15 K [mPa·s] | viscosity, 318.15 K [mPa·s]
m1 = 0.01 | 1096.09 ± 1 | 1086.41 ± 1 | 1076.4 ± 1 | 1486 ± 1.3 | 1452.1 ± 1.3 | 1418.6 ± 1.3 | 1.88 ± 0.34 | 1.535 ± 0.28 | 1.247 ± 0.23
m1 = 0.02 | 1097.16 ± 1 | 1087.16 ± 1 | 1077.18 ± 1 | 1487 ± 1.3 | 1453.1 ± 1.3 | 1419.5 ± 1.3 | 1.958 ± 0.35 | 1.57 ± 0.28 | 1.287 ± 0.23
m1 = 0.04 | 1098.32 ± 1 | 1088.47 ± 1 | 1078.47 ± 1 | 1488.6 ± 1.3 | 1454.2 ± 1.3 | 1420.8 ± 1.3 | 2.037 ± 0.37 | 1.608 ± 0.29 | 1.327 ± 0.24
m1 = 0.06 | 1099.5 ± 1 | 1089.66 ± 1 | 1079.56 ± 1 | 1490.2 ± 1.3 | 1455.2 ± 1.3 | 1422 ± 1.3 | 2.124 ± 0.38 | 1.645 ± 0.3 | 1.359 ± 0.25
m1 = 0.08 | 1100.68 ± 1 | 1090.65 ± 1 | 1080.71 ± 1 | 1491.7 ± 1.3 | 1456.3 ± 1.3 | 1423 ± 1.3 | 2.201 ± 0.4 | 1.685 ± 0.31 | 1.399 ± 0.25
m1 = 0.1 | 1101.83 ± 1 | 1091.96 ± 1 | 1081.9 ± 1 | 1493.5 ± 1.3 | 1457 ± 1.3 | 1424.3 ± 1.3 | 2.301 ± 0.42 | 1.716 ± 0.31 | 1.458 ± 0.26

COc1cc(-c2cc(-c3ccc(Cl)cc3)[nH]c(=O)c2C#N)ccc1O + C[S+](C)[O-]
[1]
Details | mass density, 298.15 K [kg/m3] | mass density, 308.15 K [kg/m3] | mass density, 318.15 K [kg/m3] | speed of sound, 298.15 K [m/s] | speed of sound, 308.15 K [m/s] | speed of sound, 318.15 K [m/s] | viscosity, 298.15 K [mPa·s] | viscosity, 308.15 K [mPa·s] | viscosity, 318.15 K [mPa·s]
m1 = 0.01 | 1096.42 ± 1 | 1086.43 ± 1 | 1076.43 ± 1 | 1486.1 ± 1.3 | 1452.4 ± 1.3 | 1418.9 ± 1.3 | 1.954 ± 0.35 | 1.545 ± 0.28 | 1.264 ± 0.23
m1 = 0.02 | 1097.3 ± 1 | 1087.47 ± 1 | 1077.19 ± 1 | 1487.2 ± 1.3 | 1453.4 ± 1.3 | 1419.9 ± 1.3 | 1.993 ± 0.36 | 1.571 ± 0.28 | 1.294 ± 0.23
m1 = 0.04 | 1098.53 ± 1 | 1088.83 ± 1 | 1078.52 ± 1 | 1488.4 ± 1.3 | 1454.7 ± 1.3 | 1421 ± 1.3 | 2.037 ± 0.37 | 1.614 ± 0.29 | 1.324 ± 0.24
m1 = 0.06 | 1099.79 ± 1 | 1089.98 ± 1 | 1079.89 ± 1 | 1489.6 ± 1.3 | 1455.9 ± 1.3 | 1422.2 ± 1.3 | 2.081 ± 0.38 | 1.655 ± 0.3 | 1.355 ± 0.25
m1 = 0.08 | 1100.99 ± 1 | 1091.08 ± 1 | 1080.99 ± 1 | 1490.5 ± 1.3 | 1456.7 ± 1.3 | 1423.2 ± 1.3 | 2.129 ± 0.39 | 1.699 ± 0.31 | 1.391 ± 0.25
m1 = 0.1 | 1102.29 ± 1 | 1092.32 ± 1 | 1082.35 ± 1 | 1491.1 ± 1.3 | 1457.6 ± 1.3 | 1424.5 ± 1.3 | 2.172 ± 0.39 | 1.73 ± 0.31 | 1.427 ± 0.26

C[S+](C)[O-] [dimethyl sulfoxide] + COc1cc(-c2cc(-c3ccccc3O)[nH]c(=O)c2C#N)ccc1O
[1], m2 = 0
Details | mass density [kg/m3] | speed of sound [m/s] | viscosity [mPa·s]
298.15 K | 1095.28 ± 1 | 1484.8 ± 1.3 | 1.814 ± 0.33
308.15 K | 1085.23 ± 1 | 1450.9 ± 1.3 | 1.472 ± 0.27
318.15 K | 1075.19 ± 1 | 1417.4 ± 1.3 | 1.176 ± 0.21

COc1cc(-c2cc(-c3ccccc3)[nH]c(=O)c2C#N)ccc1O
Details | Normal melting temperature [°C]
[2] | 343.12 ± 1.8

COc1cc(-c2cc(-c3ccccc3)[nH]c(=O)c2C#N)ccc1O + C[S+](C)[O-]
[1]
Details | mass density, 298.15 K [kg/m3] | mass density, 308.15 K [kg/m3] | mass density, 318.15 K [kg/m3] | speed of sound, 298.15 K [m/s] | speed of sound, 308.15 K [m/s] | speed of sound, 318.15 K [m/s] | viscosity, 298.15 K [mPa·s] | viscosity, 308.15 K [mPa·s] | viscosity, 318.15 K [mPa·s]
m1 = 0.01 | 1096.02 ± 1 | 1086.02 ± 1 | 1076.08 ± 1 | 1485.9 ± 1.3 | 1451.9 ± 1.3 | 1418.1 ± 1.3 | 1.876 ± 0.34 | 1.525 ± 0.28 | 1.242 ± 0.23
m1 = 0.02 | 1096.69 ± 1 | 1086.78 ± 1 | 1076.69 ± 1 | 1486.8 ± 1.3 | 1452.8 ± 1.3 | 1419.1 ± 1.3 | 1.916 ± 0.35 | 1.562 ± 0.28 | 1.276 ± 0.23
m1 = 0.04 | 1097.59 ± 1 | 1087.93 ± 1 | 1077.85 ± 1 | 1488 ± 1.3 | 1453.9 ± 1.3 | 1420.5 ± 1.3 | 1.976 ± 0.36 | 1.603 ± 0.29 | 1.319 ± 0.24
m1 = 0.06 | 1098.59 ± 1 | 1088.74 ± 1 | 1078.84 ± 1 | 1489.1 ± 1.3 | 1455 ± 1.3 | 1421.6 ± 1.3 | 2.02 ± 0.37 | 1.638 ± 0.3 | 1.345 ± 0.24
m1 = 0.08 | 1099.69 ± 1 | 1089.59 ± 1 | 1079.75 ± 1 | 1490.3 ± 1.3 | 1456 ± 1.3 | 1422.6 ± 1.3 | 2.063 ± 0.37 | 1.668 ± 0.3 | 1.37 ± 0.25
m1 = 0.1 | 1100.84 ± 1 | 1090.64 ± 1 | 1080.75 ± 1 | 1491 ± 1.3 | 1456.8 ± 1.3 | 1423.7 ± 1.3 | 2.107 ± 0.38 | 1.697 ± 0.31 | 1.41 ± 0.26

COc1cc(-c2cc(-c3ccccc3O)[nH]c(=O)c2C#N)ccc1O
Details | Normal melting temperature [°C]
[2] | 234.49 ± 1.8
